# Laboratory results reported in article PMC9810691, “Structure-guided peptide engineering of a positive allosteric modulator targeting the outer pore of TRPV1 for long-lasting analgesia” (Nature Communications, 2023).
# “And” between values parts separate entries of the source, which are not always exact repeats. Equal values may be shown once.
# How the values were obtained:
# TRPV1 K604E = test: Desensitization, TRPV1 mutant K604E; type: cell-based, murine; settings: 10 μM cap alone or + 30 μM s-RhTx; single cells; listed as cap
# Experimental: Site mutations of mTRPV1 were generated by Fast Mutagenesis Kit (Takara Bio). Primers used to generate point mutations are summarized in Supplementary Table 1. All mutations were confirmed by sequencing.
# (§1) Patch-clamp recordings were carried out with a HEKA EPC10 amplifier controlled by PatchMaster software (HEKA). Patch pipettes were prepared from borosilicate glass and fire-polished to resistance of 3–8 MΩ by P-97 puller. Both bath solution and pipette solution contained 130 mM NaCl, 10 mM glucose, 0.2 mM EDTA, and 3 mM HEPES and were adjusted to pH 7.2–7.4 with NaOH for whole-cell recordings. For solution with pH lower than 6.5, HEPES was replaced by MES. Whole-cell recordings were performed at ±80 mV. Current was sampled at 10 kHz and filtered at 2.9 kHz. All recordings were performed at room temperature (25 °C). A gravity-driven system (RSC-200, Bio-Logic) with freely rotated perfusion tubes was used for the perfusion of peptide or ligands. Bath and ligand solution were delivered through separate tubes to minimize the mixing of solutions. Patch pipette holding cells was placed in front of the perfusion tube outlet for perfusion. […]
# (§2) Data from whole-cell recordings were analyzed in Igor Pro version 5.05 (WaveMatrix). […]
# [1] = test system: Trpv1+ nerve fibers, Trpv1-Ai32 / Trpv1-Ai14 mice; test: Trpv1+ intra-epidermal nerve fiber (IENF) quantification; type: in vivo; settings: capsaicin 200 ng alone or with 2 μg peptide
# Experimental: (§3) Adult C57 BL/6 mice (male, 8–10 weeks) and Trpv1^-/- mice (Jax Strain #:003770) were used for behavioral studies. To specifically label Trpv1-positive nerve fibers in skin tissues, Trpv1-Cre mice[36] (Jax Strain #:017769) were crossed with floxed reporter lines (Ai32, Jax Strain #:012569 or Ai14, Jax Strain #:007914) to get the transgenic reporter (Trpv1-Ai32 or Trpv1-Ai14) mice. Mice were group-housed at 22–24 °C and relative humidity of 30–70% under the 12 h light-dark cycle with access to standard food and water ad libitum. All the animal procedures were approved by the Institutional Animal Care & Use Committee (IACUC) of Zhejiang University.
# After appropriate survival times, the mice were deeply anesthetized with isoflurane and perfused through the ascending aorta with PBS, followed by 4% PFA. After the perfusion, the hind paw glabrous skins and L4-L6 DRGs were removed and postfixed in the same fixative overnight. Skin sections (30 μm) and DRG sections (10 μm) were cut in a cryostat. Sections were blocked with 2% BSA for 2 h at room temperature and then incubated with Deep-red 640/660-conjugated Nissl (1:1000) at room temperature for 2 h. Sections were then incubated with DAPI (1:10,000, Vector Laboratories, catalog H-1200) for 5 min, followed by three times washing with PBS for 5 min each. The stained and mounted sections were examined with a Nikon fluorescence microscope, and images were captured with a charge-coupled device Spot camera. For quantification analysis, at least three sections from each mouse were selected, and at least three mice were analyzed in each group. To evaluate Trpv1-positive nerve fiber degeneration, transgenic reporter (Trpv1-Ai32 or Trpv1-Ai14) mice were used for the quantification of intra-epidermal nerve fiber (IENF) density. IENF density was calculated by counting the number of IENF crossing the epidermis-dermis boundary within unit length.
# TRPV1 [2] = biological target: T1, TRPV1 (Mus musculus, UniProt Q704Y3); test: Capsaicin-induced desensitization of TRPV1 (WT) in calcium; type: cell-based, murine
# Experimental: (§4) HEK293T cells are cultured using DMEM medium contained 10% FBS in a cell incubator with 5% CO2 at 37 °C. Plasmids of murine TRPV1, TRPV2, TRPV3 and human TRPA1 are labeled with YFP or GFP as indicators for subsequent electrophysiological recordings. cDNA constructs of ion channels were transiently transfected with Lipofectamine 2000 (Invitrogen, Carlsbad, CA). And one or 2 days after transient transfection, electrophysiological recordings were performed.
# as §1, with “solutions.” for “solutions. Patch pipette holding cells was placed in front of the perfusion tube outlet for perfusion.”
# as §2
# wildtype mice = type: in vivo
# Experimental: as §3, with “University. […]” for “University.”
# Spontaneous pain was measured by counting the time (s) mice spent on licking, lifting, or flinching the affected hind paws over a 10-min period after i.pl. injection.
# TRPV1 [3] = biological target: T1, TRPV1; test: Calcium imaging, HEK293T cells expressing TRPV1; type: cell-based, murine
# Experimental: as §4
# Calcium imaging assay was performed as previously described[12],[20]. In brief, HEK293T cells expressing TRPV1 were incubated with 2 μM Fluo-4 AM (Thermo Fisher) in 2 mM calcium Ringer’s solution (140 mM NaCl, 5 mM KCl, 2 mM MgCl2, 2 mM CaCl2, 10 mM glucose, and 10 mM HEPES, pH 7.4). Fluorescence images of HEK293T cells were acquired with Nikon Eclipse Ti2 microscope with optiMOS charge-coupled device camera controlled by the Ocular Software (Molecular Devices). Fluo-4 AM was excited at 500/20-nm excitation, and fluorescence emission was detected at 535/30-nm. Fluorescence images were analyzed with Fiji software and Office Excel.
# [4] = test system: CFA-induced chronic inflammatory pain model mice; test: CFA-induced heat hyperalgesia (Hargreaves test); type: in vivo; settings: capsaicin alone (with saline) or with linear or folded s-RhTx; words
# Experimental: Thermal sensitivity was tested using a Hargreaves radiant heat apparatus (IITC Life Science) as previously reported[40],[41]. For heat hyperalgesia test in CFA model, the basal paw withdrawal latency was adjusted to 9 to 12 s, with a cutoff of 20 s to prevent tissue damage. For thermal sensitivity test, the basal paw withdrawal latency was adjusted to 4 to 6 s, with a cutoff of 10 s to prevent tissue damage. Withdrawal latency were averaged from three consecutive tests with a 5 min interval between measurements.
# [5] = test system: CFA-induced chronic inflammatory pain model mice; type: in vivo; settings: capsaicin alone (with saline) or with linear or folded s-RhTx; words
# Experimental: Mechanical allodynia was assessed via von Frey test as previously reported. Mice were placed in a plexiglass chamber upon the elevated metal mesh with 1 cm openings and allowed to acclimatize for 1 h. To determine mechanical thresholds of paw withdrawal, a series of von Frey filaments (0.02–2.56 g, Stoelting Co.) with increasing stiffness were used according to Dixon’s up-down method.
# T1 sequence (Q704Y3 whole entry): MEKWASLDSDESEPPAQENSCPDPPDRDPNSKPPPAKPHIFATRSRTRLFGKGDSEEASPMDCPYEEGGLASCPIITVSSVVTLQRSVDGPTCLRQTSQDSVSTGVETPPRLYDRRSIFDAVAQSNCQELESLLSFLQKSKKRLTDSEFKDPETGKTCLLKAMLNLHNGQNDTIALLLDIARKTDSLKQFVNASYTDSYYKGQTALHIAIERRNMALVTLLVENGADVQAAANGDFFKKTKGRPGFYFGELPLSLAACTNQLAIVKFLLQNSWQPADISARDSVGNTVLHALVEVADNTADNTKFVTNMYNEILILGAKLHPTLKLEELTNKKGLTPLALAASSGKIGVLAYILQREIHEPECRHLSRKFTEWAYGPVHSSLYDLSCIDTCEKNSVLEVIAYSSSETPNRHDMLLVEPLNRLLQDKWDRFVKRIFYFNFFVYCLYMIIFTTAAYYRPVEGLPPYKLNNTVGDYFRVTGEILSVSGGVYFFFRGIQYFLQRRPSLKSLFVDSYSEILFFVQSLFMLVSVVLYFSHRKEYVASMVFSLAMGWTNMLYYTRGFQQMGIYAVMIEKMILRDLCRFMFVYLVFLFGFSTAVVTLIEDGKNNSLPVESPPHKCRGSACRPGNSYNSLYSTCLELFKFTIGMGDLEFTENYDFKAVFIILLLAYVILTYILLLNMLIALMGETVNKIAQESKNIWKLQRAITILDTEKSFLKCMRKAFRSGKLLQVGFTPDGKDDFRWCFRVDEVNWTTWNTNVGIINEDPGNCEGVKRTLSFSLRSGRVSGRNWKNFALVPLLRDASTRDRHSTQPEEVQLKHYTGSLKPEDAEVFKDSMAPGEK
smiles,measurement,setting,value
"COc1cc(CNC(=O)CCCC/C=C/C(C)C)ccc1O [capsaicin, Capsaicin]","desensitization time constant, K604E",TRPV1 K604E,46.184 s and 35.399 s and 63.872 s and 58.758 s and 34.354 s and 64.15 s
same,"IENF number, with capsaicin","[1]; individual mice, listed as Cap",11 and 9 and 12
same,"number of Trpv1+ IENF, with capsaicin",[1]; words,little effect on the number of Trpv1^+ IENF
same,AUC of desensitization (mean),TRPV1 [2],72.39 ± 6.61 and 39.25 ± 5.01
same,desensitization time constant tau (mean),TRPV1 [2],47.37 ± 6.14 s and 23.87 ± 3.97 s
same,"spontaneous pain behavior, with capsaicin","wildtype mice; capsaicin 200 ng alone or with 2 μg peptide, i.pl., words",caused a mild spontaneous pain behavior
same,"total time of spontaneous pain within 10 min, with capsaicin","wildtype mice; capsaicin 200 ng i.pl. alone (cap) or with 2 μg linear or folded s-RhTx, 20 μl, individual mice, listed as Cap",63.91 s and 41.04 s and 20.17 s and 30.43 s and 88.51 s and 98.54 s and 102.03 s and 29.73 s and 145.77 s
same,calcium influx,TRPV1 [3],cannot induce discernable calcium influx
same,effect on CFA-induced heat hyperalgesia,[4],slow recovery from heat hyperalgesia
same,effect on CFA-induced mechanical allodynia,[5],robust and prolonged mechanical allodynia
